# Measurements as given in publication PMC10272112 (Nature Communications, 2023).
# Several values for one entry are separate records, joined by “and”; a condition that tells them apart may be missing. Equal entries are not always repeated.
# Target: T1, TwinStrep-GST-HDAC10 (Homo sapiens, UniProt Q969S8)
# T1 sequence (Q969S8 1-669): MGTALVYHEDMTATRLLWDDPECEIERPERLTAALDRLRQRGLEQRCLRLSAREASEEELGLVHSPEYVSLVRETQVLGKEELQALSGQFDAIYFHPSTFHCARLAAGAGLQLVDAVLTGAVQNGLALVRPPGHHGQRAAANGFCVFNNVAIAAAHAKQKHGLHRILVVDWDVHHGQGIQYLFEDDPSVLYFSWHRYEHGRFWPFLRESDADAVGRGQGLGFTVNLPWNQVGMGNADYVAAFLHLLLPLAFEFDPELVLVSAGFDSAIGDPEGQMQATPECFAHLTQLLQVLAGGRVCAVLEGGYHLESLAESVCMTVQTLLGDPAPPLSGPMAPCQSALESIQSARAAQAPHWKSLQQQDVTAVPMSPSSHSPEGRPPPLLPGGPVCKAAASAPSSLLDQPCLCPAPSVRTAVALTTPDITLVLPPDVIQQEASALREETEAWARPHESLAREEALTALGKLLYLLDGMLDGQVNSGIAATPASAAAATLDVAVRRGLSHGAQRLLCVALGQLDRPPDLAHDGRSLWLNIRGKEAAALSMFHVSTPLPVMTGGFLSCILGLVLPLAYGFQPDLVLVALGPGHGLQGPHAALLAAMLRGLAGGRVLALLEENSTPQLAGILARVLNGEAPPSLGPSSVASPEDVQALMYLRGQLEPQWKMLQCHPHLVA
# Assay: HDAC10 TR-FRET assay
# Assay type: binding
# Details: sheet S2e
# Description: To validate the inhibition of HDACs by LA and LM and elaborate on the structure-activity relationship (SAR) of enantiomers as well as oxidized versus reduced forms of the molecules, we performed enzyme activity assays for recombinant HDAC1,2,3,6,8 as well as FRET-based binding assay for recombinant HDAC10.
# Inhibitors with a D300e Digital Dispenser (Tecan). After drug dosing to the premixed assay reagents in buffer, plates were shaken (800 rpm orbital shaker, 30 s), centrifuged (300g, 1 min), and incubated at RT in the dark for 90 min. TR-FRET was measured with a CLARIOstar (BMG Labtech) plate reader, equipped with TR-FRET filters.
SMILES,HDAC10 TR-FRET relative signal (log conc -5.74088),HDAC10 TR-FRET relative signal (log conc -6.32148),HDAC10 TR-FRET relative signal (log conc -6.92082),HDAC10 TR-FRET relative signal (log conc -7.57349),HDAC10 TR-FRET relative signal (log conc -8.06198),HDAC10 TR-FRET relative signal (log conc -4.58031),HDAC10 TR-FRET relative signal (log conc -5.16059)
O=C(O)CCCCC(S)CCS (stereo not drawn) [R/S Lipoic Acid Reduced],12.9805 and 13.6219 and 13.4323,35.3961 and 30.9531 and 27.2587,58.0202 and 63.7897 and 66.3493,84.4678 and 78.5713 and 85.276,102.777 and 109.857 and 101.86,–,–
O=C(O)CCCCC1CCSS1 (stereo not drawn) [R/S Lipoic Acid],52.1664 and 54.0588 and 51.0514,88.5435 and 84.6455 and 96.7603,91.5597 and 91.2649 and 101.82,99.4261 and 99.6664 and 105.18,106.58 and 110.725 and 95.693,16.6621 and 17.5526 and 13.058,24.6813 and 29.9295 and 28.3509
